Tested on: Metabolism protein genes
Experiment: DNA chip mRNA expression in yeast, metabolism protein genes (Table 7)
Format: cell-based, Saccharomyces cerevisiae S288C
Method: Yeast (Saccharomyces cerevisiae S288C (α SUC2mal mel gap2 CUP1)) were incubated at 25° C. on YPD medium (yeast extract 1%, polypepton 2%, glucose 2%). One of toxic chemical substances was added to the cells at logarithmic growth phase, and the cells were further incubated for two hours. Cells were cultured without any chemical substance in the same condition, and were used as control. Concentrations of the chemical substances were defined to inhibit the growth of the yeast but not lead to death.
After completion of the incubation, the culture was centrifuged to collect the cells. To the cells, sodium acetate buffer (50 mM sodium acetate, 10 mM EDTA, 1% SDS) was added, and the mixture was shaken at 65° C. for five minutes, followed by returning to room temperature, and obtaining the supernatant, of which the procedures were repeated two times. To the supernatant, ½ amount of a solution of phenol/chloroform was added, and the mixture was centrifuged to give a supernatant, which was added with an equal amount of chloroform, and the mixture was centrifuged to give a supernatant. To the supernatant, an equal amount of isopropanol containing 0.3 M sodium acetate was added, and the mixture was allowed to stand at room temperature for 30 minutes, after which the mixture was centrifuged to give a sediment of the whole RNAs. Seventy % ethanol was added to the sediment, and the mixture was again centrifuged to give a sediment, which was then dried and dissolved in water. mRNA was isolated from the whole RNAs as followings. In view of the fact that a poly A chain is attached to the 3′ terminus of mRNA, a polynucleotide having a poly T structure which was immobilized on the surface of latex beads was used to trap the mRNA, and then the mRNA was washed and eluted with spine column (Oligotex-dT30<Super>mRNA Purification Kit, Takara). Reverse transcription of the mRNA was conducted with a reverse transcriptase (Super Script II Reverse Transcriptase; catalogue No. 18064-014, GibcoBRL) using fluorescence-labeled nucleotides to give cDNAs that were introduced with Cy3-dUTP or Cy5-dUTP during the reverse transcription.
The labeled cDNAs were dissolved in TE buffer (10mM Tris-HCl/1 mM EDTA, pH8.0), and the solution was dropped on the DNA chip containing the whole genes of yeast (DNA Chip Research Inc. Japan) so that the cDNAs were hybridized on the DNA chip at 65° C. for over 12 hours. The fluoresces intensity of the DNA chip was read with a scanner, and the ratio relative to the fluorescence intensity resulting from the absence of chemical substance was estimated as the following, which is shown in Tables 1 to 9: […]

COc1cc(CNC(=O)CCCCC=CC(C)C)ccc1O [(12), 8-methyl-N-vanillyl-6-nonenamide]
level of expressed mRNA in the presence/in the absence of chemical substance (yeast gene YJR143C): 0.6
The level of expressed mRNA in the presence of chemical substance/The level of expressed mRNA in the absence of chemical substance (yeast gene YJR148W): 0.8
The level of expressed mRNA in the presence of chemical substance/The level of expressed mRNA in the absence of chemical substance (yeast gene YJR155W): 1.0
The level of expressed mRNA in the presence of chemical substance/The level of expressed mRNA in the absence of chemical substance (yeast gene YKL035W): 1.0
level of expressed mRNA in the presence/in the absence of chemical substance (yeast gene YKL060C): 1.3
The level of expressed mRNA in the presence of chemical substance/The level of expressed mRNA in the absence of chemical substance (yeast gene YKL091C): 1.3
The level of expressed mRNA in the presence of chemical substance/The level of expressed mRNA in the absence of chemical substance (yeast gene YKL104C): 1.6
level of expressed mRNA in the presence/in the absence of chemical substance (yeast gene YKL148C): 0.8
The level of expressed mRNA in the presence of chemical substance/The level of expressed mRNA in the absence of chemical substance (yeast gene YKL152C): 1.5
level of expressed mRNA in the presence/in the absence of chemical substance (yeast gene YKL157W): 1.0
The level of expressed mRNA in the presence of chemical substance/The level of expressed mRNA in the absence of chemical substance (yeast gene YKL213C): 0.9
The level of expressed mRNA in the presence of chemical substance/The level of expressed mRNA in the absence of chemical substance (yeast gene YKL215C): 1.0
level of expressed mRNA in the presence/in the absence of chemical substance (yeast gene YKR034W): 0.7
The level of expressed mRNA in the presence of chemical substance/The level of expressed mRNA in the absence of chemical substance (yeast gene YKR039W): 1.5
The level of expressed mRNA in the presence of chemical substance/The level of expressed mRNA in the absence of chemical substance (yeast gene YLL058W): 1.0
level of expressed mRNA in the presence/in the absence of chemical substance (yeast gene YLR006C): 0.7
level of expressed mRNA in the presence/in the absence of chemical substance (yeast gene YLR044C): 1.4
level of expressed mRNA in the presence/in the absence of chemical substance (yeast gene YLR056W): 0.9
level of expressed mRNA in the presence/in the absence of chemical substance (yeast gene YLR058C): 0.4
level of expressed mRNA in the presence/in the absence of chemical substance (yeast gene YLR081W): 1.0
level of expressed mRNA in the presence/in the absence of chemical substance (yeast gene YLR089C): 0.6
The level of expressed mRNA in the presence of chemical substance/The level of expressed mRNA in the absence of chemical substance (yeast gene YLR180W): 0.6
The level of expressed mRNA in the presence of chemical substance/The level of expressed mRNA in the absence of chemical substance (yeast gene YLR273C): 0.9
level of expressed mRNA in the presence/in the absence of chemical substance (yeast gene YLR284C): 0.6
The level of expressed mRNA in the presence of chemical substance/The level of expressed mRNA in the absence of chemical substance (yeast gene YLR299W): 1.0
The level of expressed mRNA in the presence of chemical substance/The level of expressed mRNA in the absence of chemical substance (yeast gene YLR300W): 0.5
level of expressed mRNA in the presence/in the absence of chemical substance (yeast gene YLR304C): 1.0
The level of expressed mRNA in the presence of chemical substance/The level of expressed mRNA in the absence of chemical substance (yeast gene YLR307W): 0.7
The level of expressed mRNA in the presence of chemical substance/The level of expressed mRNA in the absence of chemical substance (yeast gene YLR348C): 0.9
level of expressed mRNA in the presence/in the absence of chemical substance (yeast gene YLR354C): 1.2
level of expressed mRNA in the presence/in the absence of chemical substance (yeast gene YLR372W): 0.6
level of expressed mRNA in the presence/in the absence of chemical substance (yeast gene YML022W): 0.6
The level of expressed mRNA in the presence of chemical substance/The level of expressed mRNA in the absence of chemical substance (yeast gene YML054C): 1.8
The level of expressed mRNA in the presence of chemical substance/The level of expressed mRNA in the absence of chemical substance (yeast gene YML070W): 1.3
The level of expressed mRNA in the presence of chemical substance/The level of expressed mRNA in the absence of chemical substance (yeast gene YML100W): 1.2
The level of expressed mRNA in the presence of chemical substance/The level of expressed mRNA in the absence of chemical substance (yeast gene YMR008C): 1.1
level of expressed mRNA in the presence/in the absence of chemical substance (yeast gene YMR011W): 0.8
level of expressed mRNA in the presence/in the absence of chemical substance (yeast gene YMR015C): 0.9
The level of expressed mRNA in the presence of chemical substance/The level of expressed mRNA in the absence of chemical substance (yeast gene YMR020W): 1.1
level of expressed mRNA in the presence/in the absence of chemical substance (yeast gene YMR083W): 0.7
The level of expressed mRNA in the presence of chemical substance/The level of expressed mRNA in the absence of chemical substance (yeast gene YMR105C): 1.7
The level of expressed mRNA in the presence of chemical substance/The level of expressed mRNA in the absence of chemical substance (yeast gene YMR189W): 0.6
level of expressed mRNA in the presence/in the absence of chemical substance (yeast gene YMR205C): 1.1
level of expressed mRNA in the presence/in the absence of chemical substance (yeast gene YMR261C): 0.9
The level of expressed mRNA in the presence of chemical substance/The level of expressed mRNA in the absence of chemical substance (yeast gene YMR271C): 1.3
The level of expressed mRNA in the presence of chemical substance/The level of expressed mRNA in the absence of chemical substance (yeast gene YMR296C): 0.8
level of expressed mRNA in the presence/in the absence of chemical substance (yeast gene YMR323W): 1.2
The level of expressed mRNA in the presence of chemical substance/The level of expressed mRNA in the absence of chemical substance (yeast gene YNL012W): 1.3
level of expressed mRNA in the presence/in the absence of chemical substance (yeast gene YNL025C): 0.8
The level of expressed mRNA in the presence of chemical substance/The level of expressed mRNA in the absence of chemical substance (yeast gene YNL045W): 0.9
The level of expressed mRNA in the presence of chemical substance/The level of expressed mRNA in the absence of chemical substance (yeast gene YNL104C): 1.1
The level of expressed mRNA in the presence of chemical substance/The level of expressed mRNA in the absence of chemical substance (yeast gene YNL106C): 0.8
The level of expressed mRNA in the presence of chemical substance/The level of expressed mRNA in the absence of chemical substance (yeast gene YNL169C): 1.0
level of expressed mRNA in the presence/in the absence of chemical substance (yeast gene YNL192W): 1.1
The level of expressed mRNA in the presence of chemical substance/The level of expressed mRNA in the absence of chemical substance (yeast gene YNL231C): 1.8
The level of expressed mRNA in the presence of chemical substance/The level of expressed mRNA in the absence of chemical substance (yeast gene YNL322C): 0.7
The level of expressed mRNA in the presence of chemical substance/The level of expressed mRNA in the absence of chemical substance (yeast gene YNL331C): 0.9
The level of expressed mRNA in the presence of chemical substance/The level of expressed mRNA in the absence of chemical substance (yeast gene YNL332W): 1.2
The level of expressed mRNA in the presence of chemical substance/The level of expressed mRNA in the absence of chemical substance (yeast gene YNR019W): 1.0
The level of expressed mRNA in the presence of chemical substance/The level of expressed mRNA in the absence of chemical substance (yeast gene YNR033W): 1.1
The level of expressed mRNA in the presence of chemical substance/The level of expressed mRNA in the absence of chemical substance (yeast gene YNR059W): 0.8
The level of expressed mRNA in the presence of chemical substance/The level of expressed mRNA in the absence of chemical substance (yeast gene YOL058W): 1.3
level of expressed mRNA in the presence/in the absence of chemical substance (yeast gene YOL086C): 1.3
level of expressed mRNA in the presence/in the absence of chemical substance (yeast gene YOL108C): 1.0
level of expressed mRNA in the presence/in the absence of chemical substance (yeast gene YOL116W): 0.6
The level of expressed mRNA in the presence of chemical substance/The level of expressed mRNA in the absence of chemical substance (yeast gene YOL126C): 1.1
The level of expressed mRNA in the presence of chemical substance/The level of expressed mRNA in the absence of chemical substance (yeast gene YOL153C): 1.9
level of expressed mRNA in the presence/in the absence of chemical substance (yeast gene YOL156W): 0.9
The level of expressed mRNA in the presence of chemical substance/The level of expressed mRNA in the absence of chemical substance (yeast gene YOL165C): 0.8
level of expressed mRNA in the presence/in the absence of chemical substance (yeast gene YOR002W): 0.5
level of expressed mRNA in the presence/in the absence of chemical substance (yeast gene YOR085W): 0.8
The level of expressed mRNA in the presence of chemical substance/The level of expressed mRNA in the absence of chemical substance (yeast gene YOR099W): 1.1
level of expressed mRNA in the presence/in the absence of chemical substance (yeast gene YOR103C): 1.2
level of expressed mRNA in the presence/in the absence of chemical substance (yeast gene YOR108W): 0.7
level of expressed mRNA in the presence/in the absence of chemical substance (yeast gene YOR128C): 0.5
The level of expressed mRNA in the presence of chemical substance/The level of expressed mRNA in the absence of chemical substance (yeast gene YOR130C): 0.9
level of expressed mRNA in the presence/in the absence of chemical substance (yeast gene YOR142W): 0.8
level of expressed mRNA in the presence/in the absence of chemical substance (yeast gene YOR176W): 1.3
level of expressed mRNA in the presence/in the absence of chemical substance (yeast gene YOR178C): 1.7
level of expressed mRNA in the presence/in the absence of chemical substance (yeast gene YOR251C): 0.9
The level of expressed mRNA in the presence of chemical substance/The level of expressed mRNA in the absence of chemical substance (yeast gene YOR336W): 1.0
The level of expressed mRNA in the presence of chemical substance/The level of expressed mRNA in the absence of chemical substance (yeast gene YOR347C): 1.2
level of expressed mRNA in the presence/in the absence of chemical substance (yeast gene YOR348C): 0.7
The level of expressed mRNA in the presence of chemical substance/The level of expressed mRNA in the absence of chemical substance (yeast gene YPL017C): 1.0
level of expressed mRNA in the presence/in the absence of chemical substance (yeast gene YPL028W): 1.4
level of expressed mRNA in the presence/in the absence of chemical substance (yeast gene YPL057C): 1.0
level of expressed mRNA in the presence/in the absence of chemical substance (yeast gene YPL135W): 1.1
level of expressed mRNA in the presence/in the absence of chemical substance (yeast gene YPL148C): 0.7
The level of expressed mRNA in the presence of chemical substance/The level of expressed mRNA in the absence of chemical substance (yeast gene YPR026W): 1.2
level of expressed mRNA in the presence/in the absence of chemical substance (yeast gene YPR113W): 0.7
level of expressed mRNA in the presence/in the absence of chemical substance (yeast gene YPR165W): 0.8
The level of expressed mRNA in the presence of chemical substance/The level of expressed mRNA in the absence of chemical substance (yeast gene YPR167C): 1.3
level of expressed mRNA in the presence/in the absence of chemical substance (yeast gene YPR183W): 1.2

Source: patent US8192962B2, “Processes for detecting toxic substances” (Daikin Industries, Ltd., priority 2001, dated 2012)
